Laboratory results from US4760078A, “Immunomodulator 1,2-dithiol-3-thione derivative composition, use method and process of producing the same” (priority 1986, dated 1988).
Like-named read-outs stand apart in the source and are kept apart here.

Assays:
mouse spleen cells [1] = assay: Action against blast formation reaction of mouse spleen cells (ConA-induced DNA synthesis, 3H-thymidine intake); format: cell-based, BALB/C mouse; settings: Experiment 1, 10^-4 M, ConA 2 μg/ml, read-out: Activity (relative activity, 3H-thymidine intake, control = 100)
Procedure: Action Against Blast Formation Reaction of Mouse Spleen Cells The action of the compound of the present invention against the DNA synthesis of mouse spleen cells, which synthesis is induced by Concanavalin A (hereinafter referred to as ConA for short) was examined. 1×10^5 spleen cells of BALB/C mouse (female, 10 weeks old) were incubated with 2 μg/ml of ConA and 10^-6, 10^-5, or 10^-4 M of the compound of the present invention in RPMI 1640 medium containing 10% […] at 37° C. in an atmosphere containing 5% CO2 for 48 hours. Subsequently, ^3 H-thymidine was added to the culture and then the culture was incubated for another 18 hours. The incubated cells were collected with a harvester and the intake of ^3 H-thymidine by the cells was determined using a scintillation counter. The activity in the table is relative activity when the activity of the control is 100.

mouse spleen cells [2] = assay: as above; format: cell-based, BALB/C mouse; settings: ConA 2 μg/ml, read-out: Activity (relative activity, 3H-thymidine intake, control = 100)
immune system = settings: published by the inventors, Pharmaceutical Society of Japan 1984; cited from earlier work
mice = assay: Acute toxicity (oral); format: in vivo, ddY mice; settings: 300 mg/kg, 6 mice per group
Excerpt: Oral toxicity of the compound of the present invention was examined using mice.
The compound of the present invention was suspended in 0.5% solution of methyl cellulose and the suspension was orally administered to ddY mice (male, 7 weeks old, 6 mice per group). The conditions of the mice were observed and the number of deaths in 14 days from administration was checked.

rat EAE = assay: Action against experimental allergic encephalomyelitis (EAE) of rats; format: in vivo, Lewis rat; settings: subcutaneous, 8 times; for Survival Rate: 50 days after inoculation, control 6/8; for Crisis Day (Mean): control 9.1 ± 0.6; for Clin. Score (Mean): score 0 to 5, control 1.0 ± 0.4, * p < 0.01
[3] = system: spleen cells producing anti-SRBC antibody; assay: Antibody production-promoting action (PFC number against SRBC, Jerne's method); format: in vivo, ICR mice; settings: oral, twice (day of immunization and next day), 3 days after immunization
Procedure: Antibody Production-Promoting Action
The action of the compound of the present invention with respect to the antibody production of mouse against sheep red blood cells (SRBC) was examined.
To tail veins of ICR mice (female, 7 weeks old, 4 mice in each group), 5×10^7 SRBC were injected to immunize the mice. The compound of the present invention suspended in 0.5% methyl cellulose solution was orally administered twice to the mice on the day of immunization and on the next day. Three days after immunization, the number of spleen cells producing anti-SRBC antibody (PFC number) was checked by Jerne's method (Science Vol. 140, p. 405 (1963)).
In Table 2, the activity is the relative PFC number when the PFC number of the control is 100.

[4] = cited from earlier work

| Structure (SMILES) | activity at 100 µM (mouse spleen cells [1]) [%] | activity at 10 µM (mouse spleen cells [2]; Experiment 1, 10^-5 M) [%] | activity at 1 µM (mouse spleen cells [2]; Experiment 1, 10^-6 M) [%] | activity at 10 µM (mouse spleen cells [2]; Experiment 2, 10^-5 M) [%] | activity at 1 µM (mouse spleen cells [2]; Experiment 2, 10^-6 M) [%] | Activity (relative PFC number, control = 100) ([3]; 0.4 mg/kg) | Activity (relative PFC number, control = 100) ([3]; 2.0 mg/kg) | further results |
| --- | --- | --- | --- | --- | --- | --- | --- | --- |
| O=C(O)CCCCC1CCSS1 (racemic) [Lipoic Acid, DL-thioctic acid, reference compound] | 234 | 146 | 142 | 159 | 95 |  |  | immunomodulating effect (immune system): excellent immunomodulating effect; number of deaths in 14 days from administration (mice): one mouse in 6 mice died |
| S=c1cc(C=CC=Cc2ccccc2)ss1 [Compound 1, 5-(4-phenyl-1,3-butadienyl)-1,2-dithiol-3-thione] | 196 | 281 | 250 |  |  | 258 | 149 | Survival Rate (rat EAE; 0.3 mg/kg/d): 8/8; Crisis Day (Mean) (rat EAE; 0.3 mg/kg/d): 10.5 ± 0.9; Clin. Score (Mean) (rat EAE; 0.3 mg/kg/d): 0.3 ± 0.1; Survival Rate (rat EAE; 3 mg/kg/d): 8/8; Crisis Day (Mean) (rat EAE; 3 mg/kg/d): 10.3 ± 0.7; Clin. Score (Mean) (rat EAE; 3 mg/kg/d): 0.2 ± 0.1 |
| COc1ccc(C=CC=Cc2cc(=S)ss2)cc1 [Compound 3, 5-{4-(4-methoxyphenyl)-1,3-butadienyl}-1,2-dithiol-3-thione] | 291 | 338 | 175 |  |  | 117 | 186 |  |
| Cc1ccc(C=CC=Cc2cc(=S)ss2)cc1 [Compound 5, 5-{4-(p-toluyl)-1,3-butadienyl}-1,2-dithiol-3-thione] |  |  |  | 228 | 130 |  |  |  |
| c1ccc([C@H]2CN3CCSC3=N2)cc1 [levamisole] |  |  |  |  |  |  |  | side effects ([4]; clinical use, reported): vomiturition, eruption and hemotoxicity; most serious side effect ([4]; disappears upon stopping the administration): granulocytopenia |
